We go through three molecules from article PMC11062903, “Discovery of potent inhibitors of α-synuclein aggregation using structure-based iterative learning” (Nature Chemical Biology, 2024).

Molecules are shown by their SMILES. “Also recorded” adds a separate entry of the source. Like-named read-outs stand apart in the source and are kept apart here.

For assay [1], the target named is T1, Aβ42 secondary nucleation (Homo sapiens, UniProt P05067).
T1 construct: The recombinant Aβ42 peptide ([…] […] […] […] IA), here called Aβ42; made in house; host or cells: Escherichia coli BL21 Gold (DE3)
T1 sequence (P05067 671-713): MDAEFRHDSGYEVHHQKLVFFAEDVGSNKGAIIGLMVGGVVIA
The assay can be described thus: seeded Aβ42 aggregation kinetics (ThT). It counts as biochemical. Particulars: 2 μM Aβ42, 40 nM seed, pH 8. As to the method:
(§1) Solutions of monomeric Aβ42 were prepared by dissolving the lyophilized Aβ42 peptide in 6 M guanidinium hydrocholoride (GuHCl). Monomeric forms were purified from potential oligomeric species and salt using a Superdex 75 10/300 GL column (GE Healthcare) at a flow rate of 0.5 ml min^−1, and were eluted in 20 mM sodium phosphate buffer, pH 8 supplemented with 200 µM EDTA and 0.02% NaN3. The center of the peak was collected and the peptide concentration was determined from the absorbance of the integrated peak area using ε280 = 1,490 l mol^−1 cm^−1. The obtained monomer was diluted with buffer to the desired concentration and supplemented with 20 μM ThT from a 2 mM stock. Each sample was then pipetted into multiple wells of a 96-well half-area, low-binding, clear-bottom and polyethylene glycol-coated plate (Corning 3881), 80 µl per well, in the absence and the presence of different molar-equivalents of small molecules (1% DMSO). Assays were initiated by placing the 96-well plate at 37 °C under quiescent conditions in a plate reader (Fluostar Omega, Fluostar Optima or Fluostar Galaxy, BMGLabtech). The ThT fluorescence was measured through the bottom of the plate using a 440 nm excitation filter and a 480 nm emission filter. Fibrils were extracted directly from wells and used on the day for SPR experiments.

A further assay concerns the target T2, Aβ42 fibrils (Homo sapiens, UniProt P05067).
T2 construct: The recombinant Aβ42 peptide ([…] […] […] […] IA), here called Aβ42; made in house; host or cells: Escherichia coli BL21 Gold (DE3)
The assay can be described thus: SPR binding to immobilized Aβ42 fibrils. As to conditions: pH 8. As to the method: as §1
All work was carried out using Biacore T200 at 25 °C. […]

The next assay addresses T3, αS fibrils (Homo sapiens, UniProt P37840).
T3 construct: made in house; host or cells: E. coli BL21 (DE3)
The assay can be described thus: SPR binding to immobilized αS fibrils. As to conditions: 1:1 kinetic binding model; for kd / kon: error s.e.m.; for kon: read-out: ka. As to the method:
All work was carried out using Biacore T200 at 25 °C. CM5 chips were activated by flowing 0.01 M N-hydroxysuccinimide, 0.4 M […] at a flow rate of 10 µl min^−1 for 7 min over two lanes. Preformed αS or Aβ42 fibrils (derived from the endpoints of low seeded aggregation reactions) at a concentration of 1 µM in sodium acetate (10 mM, pH 4.0) were injected onto a single lane in 60 s bursts at 5 µl min^−1 until a response of 2,000 units was reached. […] Different small molecule concentrations were then flowed over both lanes in a pyramidal arrangement in duplicate with blank subtraction (association time 3 min, dissociation time 10 min). The running buffer was sodium phosphate (20 mM, 1 mM EDTA, variable pH) with 1% DMSO. Fitting was carried out on Biacore T200 Evaluation Software, version 3.2, using a 1:1 binding model with the refractive index set to a constant value of 0 response units.

Assay [2] concerns the target T4, αS aggregation (surface-catalyzed secondary nucleation) (Homo sapiens, UniProt P37840).
T4 construct: made in house; host or cells: E. coli BL21 (DE3)
Briefly: light seeded αS aggregation chemical kinetics assay (ThT), secondary nucleation. The class given is biochemical.
Method: Secondary nucleation is enabled by adding a small amount of preformed fibrils to a monomeric mixture. Aggregation was tracked using the amyloid binding dye, thioflavin T (ThT).
αS was injected into a Superdex 75 10/300 GL column (GE Healthcare) at a flow rate of 0.5 ml min^−1 and eluted in 20 mM sodium phosphate buffer (pH 4.8) supplemented with 1 mM EDTA. The obtained monomer was diluted in buffer to a desired concentration and supplemented with 50 µM ThT and preformed αS fibril seeds. The molecules (or DMSO alone) were then added at the desired concentration to a final DMSO concentration of 1% (v/v). […] The assay was then initiated by placing the microplate at 37 °C under quiescent conditions in a plate reader (FLUOstar Omega, BMG Labtech). The ThT fluorescence was measured through the bottom of the plate with a 440 nm excitation filter and a 480 nm emission filter.
In the presence of low concentrations of seeds (approximately nanomolar), the fibril mass fraction, M(t), over time was described using a generalized logistic function to the normalized aggregation data[9],[70] M(t)/mtot=1−1/1+a/ce^κt^c where mtot denotes the total concentration of αS monomers. The parameters a and c are defined as a=λ^2/2κ^2 c=2/n2(n2+1). […]

Assay [3] has as its target T4, αS aggregation (surface-catalyzed secondary nucleation). On the set-up: method as in PMID 36374974. Particulars: cited from earlier work.

T2 sequence (P05067 671-713): as above

In the case of `O=C1NN(c2ccc(F)cc2)C(=O)/C1=C/c1ccc(-c2ccc(Cl)c(C(=O)O)c2)o1` [I4.05], the “effect on seeded aggregation of Aβ42” value in assay [1] is listed as “unable to effectively inhibit Aβ42 secondary nucleation; also recorded: no effect”. Further, the “binding to Aβ42 fibrils” value at Aβ42 fibrils is on record as “unable to effectively inhibit Aβ42 secondary nucleation or bind to Aβ42 fibrils; also recorded: nor does it bind effectively to Aβ42 fibrils”. At αS fibrils (pH 4.8), the Kd amounted to 68 nM, the kd is 1.315 ± 0.003 × 10^−2 s^−1 and the kon was determined as 194000 ± 7e+07 M⁻¹ s⁻¹. On αS fibrils (pH 8), binding was put at a Kd of 13 nM, the kd is recorded as 0.781 ± 0.002 × 10^−2 s^−1 and the kon came out at 588000 ± 2.4e+08 M⁻¹ s⁻¹. In assay [2] (1/t1/2 fitted to a Hill slope, 10 µM αS, 25 nM seeds, pH 4.8, 37 °C, read-out: KIC50 (concentration at which t1/2 is increased by 50% with respect to the control)), the IC50 is 520 nM.

For `Cc1c(OCc2nnn[nH]2)ccc2c1oc(=O)c1ccccc12` [molecule 48], the “activity in aggregation assays (docking set)” value in assay [3] was “active”.

As for `O=C1NN(c2ccccc2)C(=O)C1=Cc1coc2ccccc2c1=O` [molecule 69], in assay [2] (extrapolated from Hill fit of 1/t1/2, read-out: extrapolated KIC50), the IC50 was 18200 nM. Moreover, in assay [3], the “activity in aggregation assays (docking set)” value is on record as “active”.
